From patent US12617757B2, “Compounds and modules for inhibition of pre-miR-21 and their use in treatment of certain cancers” (University of Florida Research Foundation, Incorporated, priority 2019, dated 2026)

What was measured:
RNase L = target: T1, RNase L (Homo sapiens, UniProt Q05823); assay: Co-immunoprecipitation of RNase L from treated cells; assay type: cell-based; parameters: endogenous in cells; host or cells: MDA-MB-231
T1 sequence (Q05823 1-741): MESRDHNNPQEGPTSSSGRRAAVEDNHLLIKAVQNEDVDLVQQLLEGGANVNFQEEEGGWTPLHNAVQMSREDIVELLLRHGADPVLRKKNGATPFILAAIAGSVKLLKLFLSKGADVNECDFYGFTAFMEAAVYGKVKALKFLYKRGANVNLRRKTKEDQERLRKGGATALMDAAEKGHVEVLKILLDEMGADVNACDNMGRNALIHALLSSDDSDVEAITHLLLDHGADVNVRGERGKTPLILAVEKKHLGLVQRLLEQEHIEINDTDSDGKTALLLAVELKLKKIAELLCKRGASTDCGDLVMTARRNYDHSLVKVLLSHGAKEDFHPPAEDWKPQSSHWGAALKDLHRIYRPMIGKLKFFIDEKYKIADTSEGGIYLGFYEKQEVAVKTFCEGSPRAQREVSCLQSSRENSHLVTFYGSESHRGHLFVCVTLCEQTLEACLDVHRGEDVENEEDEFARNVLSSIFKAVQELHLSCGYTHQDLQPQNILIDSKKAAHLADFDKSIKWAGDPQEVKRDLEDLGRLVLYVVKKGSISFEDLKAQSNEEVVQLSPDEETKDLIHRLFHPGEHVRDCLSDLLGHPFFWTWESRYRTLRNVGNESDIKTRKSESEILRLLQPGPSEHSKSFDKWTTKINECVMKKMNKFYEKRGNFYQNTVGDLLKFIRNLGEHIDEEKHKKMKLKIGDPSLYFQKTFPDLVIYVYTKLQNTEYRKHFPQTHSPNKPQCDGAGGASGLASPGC

[1] = test system: Ifng, OAS1, RIG-I, MDA5 mRNAs; assay: RT-qPCR of antiviral innate immune response mRNAs in MDA-MB-231 cells; assay type: cell-based, human
Method: Cell culture compound treatment and transfection. For treatment with compounds, stocks in DMSO or water were diluted in growth media and added to cells for 24-72 h. For transfection of plasmid DNA to overexpress the miR-21 hairpin precursor in pcDNA3.1 (Addgene 21114) or pcDNA3-RNaseL (R. H. Silverman, Cleveland Clinic^24) in 24-well plates, Lipofectamine 2000 was used according to the manufacturer's protocol. After transfection, the medium was removed and replaced with growth medium containing compound prepared as described above. For transfection of a control (Santa Cruz Biotechnology: sc-37007) or RNase L targeting siRNA (Santa Cruz Biotechnology: sc-45965), Lipofectamine RNAiMAX Reagent was used for transfection of oligonucleotides, including 2′-5′ A4, according to the manufacturer's protocol.

IFN-γ = IFN-γ ELISA of MDA-MB-231 supernatant; assay type: cell-based, human
Method: Measurement of IFN-γ: The MDA-MB-231 cells were plated into a 24-well plate and allowed to grow to 70% confluency. Cells were transfected with 2′-5′ A4 using Lipofectamine RNAiMAX (Life Technologies). Alternatively, MDA-MB-231 cells were mock transfected and treated with vehicle (DMSO) or 5 (5, 50, 500, 5000 nM). Cell culture supernatant was removed at 24 h. The Human IFN-γ ELISA Kit (Bon Opus Biosciences: BE010020) was used to measure interferon gamma levels from the supernatants, per the manufacturer's instructions.

[2] = test system: miR-21-5p in HEK293T cells; assay: RT-qPCR of mature miR-21-5p in HEK293T cells (dimer linker screening); assay type: cell-based; conditions: n=3, n=4 and 1
MDA-LM2 cells = assay: Boyden chamber invasion assay, MDA-LM2; assay type: cell-based; conditions: LNA-21 100 nM, 2 1000 nM
Method: Boyden Chamber Invasion Assay. The MDA-MB-231, MDA-LM2, A375, A549, or MCF-10a cells (5×10^4) were seeded into Hanging Cell Culture Inserts for 24 well plates with uncoated membranes with 8.0 μm pores (Millicell) in serum free growth media. A 3 mg/mL layer (100 μL) of Matrigel (Fisher Scientific: CB40234) diluted with serum free growth media was prepared inside of each membrane. Cells were cultured as described above, with or without compound treatment, and allowed to invade towards complete growth media in the bottom well for 16-24 h before ending the experiment by removing the media in the bottom wells and inserts. The hanging cell culture inserts and bottom wells were washed twice with 1×PBS, gently shaking to mix. Excess liquid and cells inside the insert were removed with cotton swabs, after which 400 μL of 4% paraformaldehyde was placed into the bottom well and incubated for 20 min at room temperature to fix the cells. […] Four different fields of view from each captured image were counted for crystal violet stained or unstained cells. Normalized cells invaded was calculated with equation 5 (Eq 5): […]
where stained cells represent cells counted with crystal violet stain observed in the compound treated or vehicle treated samples, respectively.

pre-miR-21 BP = assay: MST binding to pre-miR-21 BP (base paired control); conditions: addition of 100 μM of compound
Method: Microscale Thermophoresis (MST) Binding Measurements. MST fluorescent measurements were performed on a Monolith NT.115 system (NanoTemper Technologies) using the fluorescence of a miR-21 hairpin (A+U Bulge): (5′ Cy5-[…]-3′) (SEQ ID NO: 1) or a miR-21 base paired control (5′ Cy5-[…]-3′) (SEQ ID NO: 2) which were purchased from IDT with RNase-free HPLC purification and used without further purification. The RNA (5 nM) was diluted in 1×MST Buffer (8 mM Na2HPO4, 190 mM NaCl, 1 mM EDTA, and 0.05% (v/v) Tween-20) and folded by heating at 60° C. for 5 min, and slowly cooling to room temperature. Compounds 1 and 2 were diluted in 1×MST Buffer, followed by 1:3 dilutions in 1×MST Buffer containing 5 nM RNA. […] Fluorescence measurements (Ex: 605-645 nm, Em: 680-685 nm) were performed at 10% LED and 80% MST power, with a Laser-On time of 30 s and Laser-Off time of 5 s. The data were analyzed by thermophoresis analysis and fitted by the quadratic binding equation in MST analysis software (NanoTemper Technologies). Dissociation constants were then determined by curve fitting using a single-site model. Normalized MST signal was calculated by normalizing the fluorescent signals using the MST data of 1 binding to pre-miR-21 WT with the lowest signal as 0 and the highest fluorescent signal as 1.

SMILES	pre-miR-21 in the enriched fraction of RNase L co-immunoprecipitation (RNase L)	enrichment of pre-miR-210 in RNase L co-immunoprecipitation (RNase L; 200 nM)	increase in pre-miR-21 in RNase L co-immunoprecipitation (RNase L; 200 nM) [fold]	levels of mRNAs associated with the antiviral innate immune response ([1]; 5 50 nM, 2′-5′ A4 500 nM transfected)	modulation of innate immunity biomarkers (RT-qPCR and ELISA) ([1]; MDA-MB-231)	IFN-7 ELISA (IFN-γ)	inhibition of miR-21 levels, dose response of linker lengths [2]	effect on invasion (MDA-LM2 cells)	saturation of the binding isotherm (pre-miR-21 BP)
CCCN(CC(=O)N(CCC)CC(=O)N(CCC)CC(=O)N(CC(=O)NCCOCCOCCOCCOc1ccc(C=C2SC(Nc3ccccc3)=C(C(=O)OCC)C2=O)cc1O)Cc1cn(CCCNC(=O)CCCOc2ccc(-c3nc4cc(-c5ccc(N6CCN(C)CC6)cc5)ccc4[nH]3)cc2)nn1)C(=O)CN(Cc1cn(CCCNC(=O)CCCOc2ccc(-c3nc4cc(-c5ccc(N6CCN(C)CC6)cc5)ccc4[nH]3)cc2)nn1)C(C)=O [Compound 5]	increased levels of pre-miR-21 in the enriched fraction	no enrichment of pre-miR-210	~3	No upregulation	No significant changes were observed	no activation of the innate antiviral immune response	–	–	–
CCCN(CC(=O)N(CCC)CC(=O)N(CCC)CC(=O)N(CC(N)=O)Cc1cn(CCCNC(=O)CCCOc2ccc(-c3nc4cc(-c5ccc(N6CCN(C)CC6)cc5)ccc4[nH]3)cc2)nn1)C(=O)CNCc1cn(CCCNC(=O)CCCOc2ccc(-c3nc4cc(-c5ccc(N6CCN(C)CC6)cc5)ccc4[nH]3)cc2)nn1 [Compound 2]	–	–	–	–	–	–	most significantly inhibited miR-21 levels	decreased the invasive phenotype	No saturation of the binding isotherm was observed
